One block for each compound: values may come before it.
Columns and labels:
[1] = Surface tension of aqueous solutions (ASTM D-1331-56); type: physicochemical; conditions: for Surface tension, anionic surfactant: Table 5, 0.01%
[2] = background section; cited from earlier work
[3] = Micellar behavior in distilled water; type: physicochemical
Description: (§1) The products of Examples 1, 2 and 4 were tested for their respective solubility in distilled water.

[4] = Solubility in water of Rf.Rf complexes and precursor surfactants; type: physicochemical
Description: The following Table 1 illustrates how a selected type of an Rf Rf ion-pair complex differs in its properties from the precursor anionic and cationic fluorochemical surfactants. Besides the differences shown in Table 1 (solubility, melting point, surface tension), Rf Rf ion-pair complexes also differ in many other properties from their precursor surfactants.
as §1

Compound: O=S(=O)(O)C(F)(F)C(F)(F)C(F)(F)C(F)(F)C(F)(F)C(F)(F)C(F)(F)C(F)(F)F [FC-95]
Surface tension, anionic surfactant alone ([1]; Table 4, at 0.01% in water): 42.2 | Surface tension, anionic surfactant [1]: 42.2

Compound: C[N+](C)(C)CCCNS(=O)(=O)C(F)(F)C(F)(F)C(F)(F)C(F)(F)C(F)(F)C(F)(F)C(F)(F)C(F)(F)F [FC-134]
Surface tension, cationic surfactant alone ([1]; Table 4, at 0.01% in water): 17.8

Compound: CCN(CC(=O)O)S(=O)(=O)C(F)(F)C(F)(F)C(F)(F)C(F)(F)C(F)(F)C(F)(F)C(F)(F)C(F)(F)F [FC-128]
Surface tension, anionic surfactant alone ([1]; Table 4, at 0.01% in water): 24.7 | Surface tension, anionic surfactant [1]: 24.7

Compound: decyltrimethylammonium decyl sulfate
surface tension of aqueous solutions (literature / general knowledge) [2]: ≥ 22 dynes/cm

micellar behavior [3]: None | surface tension of concentrated solution ([1]; concentrated solution in distilled water): 16.9 dynes/cm | solubility in distilled water [4]: 5×10^-3 weight %
Compound: 3-(1,1,2,2-tetrahydroperfluorooctylthio)-2-hydroxypropyltrimethylammonium 2-methyl-2-(3-[1,1,2,2-tetrahydroperfluorooctylthio]propanesulfonate [Example 1]
